Test results published in patent US20090005417A1, “Substituted Indazolyl Sulfonamide and 2,3-Dihydro-Indolyl Sulfonamide Compounds, their Preparation and Use in Medicaments” (LABORATORIOS DEL DR. ESTEVE S.A., priority 2004, published 2009).

Target: T1, 5HT6-human recombinant receptor (Homo sapiens, UniProt P50406)
T1 construct: purchased Receptor Biology; host or cells: HEK-293 cell membranes
Experiment: Binding to serotonin receptor 5-HT6 ([3H]-LSD radioligand)
Conditions: membranes of HEK-293 cells expressing the receptor; [3H]-LSD 2.7 nM; 60 min at 37° C.
Description: Cell membranes of HEK-293 cells expressing the 5HT6-human recombinant receptor were supplied by Receptor Biology. In said membranes the receptor concentration is 2.18 pmol/mg protein and the protein concentration is 9.17 mg/ml. The experimental protocol follows the method of B. L. Roth et al. [B. L. Roth, S. C. Craigo, M. S. Choudhary, A. Uluer, F. J. Monsma, Y. Shen, H. Y. Meltzer, D. R. Sibley: Binding of Typical and Atypical Antipsychotic Agents to 5-Hydroxytryptamine-6 and Hydroxytryptamine-7 Receptors. The Journal of Pharmacology and Experimental Therapeutics, 1994, 268, 1403] with the following slight changes. The respective part of the literature description is hereby incorporated by reference and forms part of the disclosure.
The commercial membrane is diluted (1:40 dilution) with the binding buffer: 50 mM Tris-HCl, 10 mM MgCl2, 0.5 mM EDTA (pH 7.4). The radioligand used is [^3H]-LSD at a concentration of 2.7 nM with a final volume of 200 μl. Incubation is initiated by adding 100 μl of membrane suspension, (≈22.9 μg membrane protein), and is prolonged for 60 minutes at a temperature of 37° C. The incubation is ended by fast filtration in a Brandel Cell Harvester through fiber glass filters made by Schleicher & Schuell GF 3362 pretreated with a solution of polyethylenimine at 0.5%. The filters are washed three times with three milliliters of buffer Tris-HCl 50 mM pH 7.4. The filters are transferred to flasks and 5 ml of Ecoscint H liquid scintillation cocktail are added to each flask. The flasks are allowed to reach equilibrium for several hours before counting with a Wallac Winspectral 1414 scintillation counter. Non-specific binding is determined in the presence of 100 μM of serotonin. Tests were made in triplicate. The inhibition constants (Ki, nM) were calculated by non-linear regression analysis using the program EBDA/LIGAND described in Munson and Rodbard, Analytical Biochemistry, 1980, 107, 220, the respective part of which is hereby incorporated by reference and forms part of the disclosure.
The binding of the substituted indazolyl sulfonamide or 2,3-dihydro-indolyl sulfonamide compounds to the 5-HT6 receptor was determined as described above.

T1 sequence (P50406 whole entry): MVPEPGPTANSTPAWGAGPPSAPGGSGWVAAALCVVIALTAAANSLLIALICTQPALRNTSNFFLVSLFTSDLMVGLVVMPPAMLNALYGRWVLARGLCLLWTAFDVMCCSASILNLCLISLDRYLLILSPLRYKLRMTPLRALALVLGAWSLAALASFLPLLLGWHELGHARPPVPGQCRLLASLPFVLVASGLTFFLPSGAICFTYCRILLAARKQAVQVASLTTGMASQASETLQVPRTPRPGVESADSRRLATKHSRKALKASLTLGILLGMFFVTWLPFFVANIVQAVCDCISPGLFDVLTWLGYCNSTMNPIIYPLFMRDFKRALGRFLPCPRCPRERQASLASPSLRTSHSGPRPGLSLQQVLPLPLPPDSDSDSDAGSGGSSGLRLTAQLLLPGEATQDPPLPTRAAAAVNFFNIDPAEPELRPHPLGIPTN

`Cc1c(S(=O)(=O)Nc2ccc3[nH]nc(C4CCN(C)CC4)c3c2)sc2ccc(Cl)cc12` [Example 4, 5-chloro-3-methyl-benzo[b]thiophene-2-sulfonic acid [3-(1-methyl-piperidin-4-yl)-1H-indazol-5-yl]-amide] was tested. Which Ki did it give?
The Ki was 121 nM.

With `CN(C)CCN1CCc2ccc(NS(=O)(=O)c3c(Cl)nc4sccn34)cc21` [Example 9] as the molecule, how does the Ki read?
Its Ki is 15.8 nM.

`CN(C)CCn1ncc2ccc(NS(=O)(=O)c3ccc4ccccc4c3)cc21` [Example 1, N-(1-(2-(dimethylamino)ethyl)-1H-indazol-6-yl)napthalene-2-sulfonamide] was tested. Which Ki did it give?
The Ki was 72.6 nM.

With `Cc1c(S(=O)(=O)Nc2ccc3cnn(CCN(C)C)c3c2)sc2ccc(Cl)cc12` [Example 2, 5-chloro-N-(1-(2-(dimethylamino)ethyl)-1H-indazol-6-yl)-3-methylbenzo[b]thiophene-2-sulfonamide] as the molecule, how does the Ki read?
The Ki was 16.4 nM.
